{"source": "patent US20240299416A1", "about": "“TREATMENT OF NF-kB-MEDIATED DISEASE” (ReveraGen BioPharma, Inc., priority 2021, published 2024)", "key": {"[1]": {"target": "T1, mineralocorticoid receptor (Homo sapiens, UniProt P08235)", "T1 sequence (P08235 1-984)": "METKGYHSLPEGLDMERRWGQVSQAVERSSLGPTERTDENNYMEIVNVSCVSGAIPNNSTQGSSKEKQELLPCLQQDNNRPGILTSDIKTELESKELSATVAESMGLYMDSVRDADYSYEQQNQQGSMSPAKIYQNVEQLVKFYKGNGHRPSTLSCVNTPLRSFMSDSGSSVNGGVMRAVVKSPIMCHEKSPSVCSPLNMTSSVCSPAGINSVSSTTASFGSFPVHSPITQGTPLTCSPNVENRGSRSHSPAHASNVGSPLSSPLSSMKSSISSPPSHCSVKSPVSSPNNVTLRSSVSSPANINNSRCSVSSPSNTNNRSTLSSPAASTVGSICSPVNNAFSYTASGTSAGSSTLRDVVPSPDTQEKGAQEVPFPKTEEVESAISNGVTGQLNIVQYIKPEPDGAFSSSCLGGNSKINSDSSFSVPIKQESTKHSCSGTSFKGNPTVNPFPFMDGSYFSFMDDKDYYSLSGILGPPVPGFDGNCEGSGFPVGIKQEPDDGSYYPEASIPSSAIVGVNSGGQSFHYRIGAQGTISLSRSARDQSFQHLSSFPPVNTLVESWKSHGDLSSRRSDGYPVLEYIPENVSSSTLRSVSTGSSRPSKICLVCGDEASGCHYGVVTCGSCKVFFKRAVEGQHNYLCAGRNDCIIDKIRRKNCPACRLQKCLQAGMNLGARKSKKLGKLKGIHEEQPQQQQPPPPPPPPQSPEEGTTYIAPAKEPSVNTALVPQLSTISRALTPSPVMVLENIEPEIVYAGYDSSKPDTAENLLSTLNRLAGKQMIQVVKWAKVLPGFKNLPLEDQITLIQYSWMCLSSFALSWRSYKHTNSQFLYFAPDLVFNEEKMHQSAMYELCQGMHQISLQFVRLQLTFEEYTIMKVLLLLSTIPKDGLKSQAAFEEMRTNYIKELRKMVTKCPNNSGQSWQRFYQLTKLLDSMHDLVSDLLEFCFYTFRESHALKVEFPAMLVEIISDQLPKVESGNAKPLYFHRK", "details": "cited from earlier work"}, "[2]": {"details": "Griggs et al. 2016 double-blind trial, 12 months treatment, cited from earlier work"}, "[3]": {"details": "cited from earlier work"}, "[4]": {"test": "VBP15-004 adverse events, Treatment Period 2 / cross-over", "type": "in vivo, human", "details": "on prednisone (to Week 24), subjects later switched to vamorolone 6 mg/kg/day", "protocol": "(§1) Subjects already on vamorolone continued on the allocated dose level. Efficacy at Week 48 was assessed by Time to Stand ([…]) velocity, 6-Minute Walk Test (6MWT), Time to Run/Walk 10 meters (TTRW) velocity, and North Star Ambulatory Assessment (NSAA). […] In contrast, the persistence of effects with vamorolone 2 mg/kg/day was less pronounced for some parameters. The safety profile was consistent for subjects who continued on the same dose of vamorolone throughout the study, with no increase in frequency or severity of adverse events being observed over time. […] In addition, vamorolone treatment at both doses reversed the growth impairment seen during prednisone treatment and was associated with fewer adverse events, including those associated with corticosteroid use."}, "[5]": {"test": "Growth (height percentile) and BMI vs external comparators", "type": "in vivo, human", "details": "CINRG prednisone trial, 0.75 mg/kg/day daily; for Mean BMI z-score, change from baseline (SD) / Mean BMI z-score, baseline value (SD): 0.75 mg/kg/day", "protocol": "As with the CINRG DNHS comparators, group-matching criteria were prespecified in the iSAP, and 2 independent statisticians carried out the participant matching. […] There was no corresponding 12-month assessment in vamorolone-treated participants. (Assessments of vamorolone-treated trial participants were 0, 3, 6, and 18 months).\nStanding height and weight were assessed at each study visit. Height z-score, body mass index (BMI; kg/m^2), and BMI z-score were calculated centrally. AE reporting was done per protocol in the vamorolone trials.\nThe current study is the first to evaluate the longer-term tolerability, efficacy, and safety of vamorolone in DMD. […] Given the variable timing of dose escalations, it was prespecified that initial analyses of drug-related efficacy and safety would be limited to those participants who had 18 months of treatment with 2.0 mg/kg/day vamorolone or more (dose group C+dose group D; n=23). Outcomes for these participants were compared to a group-matched cohort from the CINRG DNHS over 18 months (corticosteroid-naïve, n=19; corticosteroid-treated, n=68). Participants were matched for age and treatment period (±1 month), matching criteria were prespecified in the statistical analysis plan. Two independent statisticians carried out the matching.\nParticipants in the corticosteroid-treated CINRG DNHS group were treated for at least 18 months, but the total duration, dose, and regimens varied."}, "[6]": {"test_system": "osteocalcin, P1NP, CTX", "test": "VBP15-004 bone turnover biomarkers", "type": "in vivo, human"}, "[7]": {"test_system": "boys with DMD", "test": "VBP15-004 efficacy at Week 48", "type": "in vivo, human", "details": "prednisone, Treatment Period 1", "protocol": "as §1"}, "[8]": {"test": "VBP15-004 height and BMI z-scores, 24 to 48 weeks", "type": "in vivo, human", "details": "for BMI mean z-score: prednisone", "protocol": "(§2) The second period of 24 weeks, where all participants receive vamorolone treatment on either of the two dose levels, will continue to capture additional longer-term safety and tolerability data.\nSubjects already on vamorolone continued on the allocated dose level. Efficacy at Week 48 was assessed by Time to Stand (TTSTAND) velocity, 6-Minute Walk Test (6MWT), Time to Run/Walk 10 meters (TTRW) velocity, and North Star Ambulatory Assessment (NSAA). […] In contrast, the persistence of effects with vamorolone 2 mg/kg/day was less pronounced for some parameters. The safety profile was consistent for subjects who continued on the same dose of vamorolone throughout the study, with no increase in frequency or severity of adverse events being observed over time. […] In addition, vamorolone treatment at both doses reversed the growth impairment seen during prednisone treatment and was associated with fewer adverse events, including those associated with corticosteroid use."}, "[9]": {"test": "VBP15-004 adverse events at 24 weeks", "design": "species or system human", "details": "male, human, in vivo, 24 weeks", "source_text": "In certain embodiments, the symptom may be an adverse event of special interest (AESI). In this context, AESIs are prespecified based on pre-defined MedDRA search criteria for eleven AESI categories for the corticosteroid class and then further stratified into AESI of at least moderate severity. The symptoms for treating DMD with corticosteroids include, but is not limited to, behavior adverse events, blood glucose related problems, gastrointestinal symptoms, increased arterial blood pressure, immune suppression/infections, skin/hair changes, cataracts/glaucoma, cushingoid features, weight gain, bone fractures, slow growth.\nas §2"}, "[10]": {"details": "Griggs et al. 2016, 0.9 mg/kg/day deflazacort, 0.75 mg/kg/day prednisone"}}, "note": "Where two headings read alike, the source gives them in different places."}
{"smiles": "CC(=O)OCC(=O)[C@@]12N=C(C)O[C@@H]1C[C@H]1[C@@H]3CCC4=CC(=O)C=C[C@]4(C)[C@H]3[C@@H](O)C[C@@]12C", "note": "[Deflazacort, deflazacort]", "values": [{"measurement": "activity at the mineralocorticoid receptor", "setting": "[1]", "result": "agonists"}, {"measurement": "change in height percentiles for age", "setting": "[2]", "result": "−11.4"}, {"measurement": "change in height percentiles for age", "setting": "[2]; listed as deflazacort", "result": "−11.43"}, {"measurement": "Incidence of Cushingoid", "setting": "[3]; CINRG DNHS", "result": 72, "unit": "%"}, {"measurement": "Incidence of behavior change", "setting": "[3]; CINRG DNHS", "result": 33, "unit": "%"}, {"measurement": "Incidence of weight gain", "setting": "[3]; CINRG DNHS", "result": 63, "unit": "%"}, {"measurement": "Incidence of Cushingoid", "setting": "[3]; [10]", "result": 60.3, "unit": "%"}, {"measurement": "Incidence of behavior change", "setting": "[3]; [10]", "result": 9, "unit": "%"}, {"measurement": "Incidence of hypertrichosis/hirsutism", "setting": "[3]; [10]", "result": 35, "unit": "%"}, {"measurement": "Incidence of weight gain", "setting": "[3]; [10]", "result": 27.9, "unit": "%"}]}
{"smiles": "C[C@]12C=CC(=O)C=C1CC[C@@H]1[C@@H]2C(=O)C[C@@]2(C)[C@H]1CC[C@]2(O)C(=O)CO", "note": "[Prednisone, prednisone]", "values": [{"measurement": "number of adverse events", "setting": "[4]", "result": 70}, {"measurement": "number of adverse events reported as behavioral disorders", "setting": "[4]", "result": 15}, {"measurement": "number of adverse events typically associated with corticosteroids", "setting": "[4]", "result": 40}, {"measurement": "Mean BMI z-score, value (SD) at 12 months", "setting": "[5]; 12 months", "result": "1.068 (1.05)"}, {"measurement": "Mean height percentile for age, change from baseline (SD)", "setting": "[5]; 12 months", "result": "−3.76 (10.44)"}, {"measurement": "Mean height percentile for age, value (SD) at 12 months", "setting": "[5]; 12 months", "result": "26.14 (24.21)"}, {"measurement": "Mean BMI z-score, change from baseline (SD)", "setting": "[5]; 12 months", "result": "0.459 (0.407)"}, {"measurement": "Mean BMI z-score, change from baseline (SD)", "setting": "[5]; 12 months, listed as prednisone", "result": 0.46}, {"measurement": "Mean height percentile for age, baseline value (SD)", "setting": "[5]; baseline", "result": "29.89 (29.15)"}, {"measurement": "Mean BMI z-score, baseline value (SD)", "setting": "[5]; baseline", "result": "0.61 (1.27)"}, {"measurement": "Mean BMI z-score, baseline value (SD)", "setting": "[5]; baseline, listed as prednisone", "result": 0.61}, {"measurement": "activity at the mineralocorticoid receptor", "setting": "[1]", "result": "agonists"}, {"measurement": "Osteocalcin, mean (SEM) change at Week 24", "setting": "[6]", "result": "−15.2 (2.7) ng/ml"}, {"measurement": "Procollagen 1 N-Terminal Propeptide (P1NP), mean (SEM) change at Week 24", "setting": "[6]; Prednisone 0.75 mg", "result": "−134 (22) ng/mL"}, {"measurement": "Type I Collagen C-Telopeptides (CTX), mean (SEM) change at Week 24", "setting": "[6]; Prednisone 0.75 mg", "result": "−300 (43) pg/mL"}, {"measurement": "effect on bone biomarkers (osteocalcin, PINP, CTX)", "setting": "[6]; Week 24, vamorolone 2.0 and 6.0 mg/kg", "result": "strongly reduce all bone biomarkers"}, {"measurement": "6MWT distance", "setting": "[7]", "result": 407, "unit": "meters"}, {"measurement": "NSAA", "setting": "[7]", "result": 25.6, "unit": "points"}, {"measurement": "TTRW velocity", "setting": "[7]", "result": 2.20, "unit": "m/s"}, {"measurement": "TTSTAND velocity", "setting": "[7]", "result": 0.28, "unit": "rises/s"}, {"measurement": "height (z-score), absolute value, Mean", "setting": "[8]; PDN/VAM 6 mg, Week 24", "result": "−0.38"}, {"measurement": "change in height Z scores", "setting": "[8]; prednisone 0.75 mg/kg/day, baseline to Week 24", "result": "growth deceleration"}, {"measurement": "BMI mean z-score", "setting": "[8]; end of Treatment Period 1", "result": 1.40}, {"measurement": "BMI mean z-score", "setting": "[8]; start of Treatment Period 1", "result": 0.94}, {"measurement": "AESIs of at least moderate severity, F", "setting": "[9]", "result": 15}, {"measurement": "Abnormal behavior, any severity, F", "setting": "[9]", "result": 2}, {"measurement": "Abnormal behavior, moderate/severe, F", "setting": "[9]", "result": 1}, {"measurement": "Aggression, any severity, F", "setting": "[9]", "result": 3}, {"measurement": "Aggression, moderate/severe, F", "setting": "[9]", "result": 2}, {"measurement": "All AESIs, F", "setting": "[9]", "result": 69}, {"measurement": "All TEAEs, F", "setting": "[9]", "result": 120}, {"measurement": "Anger, any severity, F", "setting": "[9]", "result": 1}, {"measurement": "Any Behavior AESI, any severity, F", "setting": "[9]", "result": 16}, {"measurement": "Any Behavior AESI, moderate/severe, F", "setting": "[9]", "result": 8}, {"measurement": "Clinically relevant AEs, F", "setting": "[9]", "result": 19}, {"measurement": "Emotional disorder, any severity, F", "setting": "[9]", "result": 1}, {"measurement": "Emotional disorder, moderate/severe, F", "setting": "[9]", "result": 1}, {"measurement": "Initial insomnia, any severity, F", "setting": "[9]", "result": 1}, {"measurement": "Irritability, any severity, F", "setting": "[9]", "result": 1}, {"measurement": "Mood swings, any severity, F", "setting": "[9]", "result": 2}, {"measurement": "Mood swings, moderate/severe, F", "setting": "[9]", "result": 1}, {"measurement": "Personality change, any severity, F", "setting": "[9]", "result": 1}, {"measurement": "Personality change, moderate/severe, F", "setting": "[9]", "result": 1}, {"measurement": "Psychomotor hyperactivity, any severity, F", "setting": "[9]", "result": 3}, {"measurement": "Psychomotor hyperactivity, moderate/severe, F", "setting": "[9]", "result": 1}, {"measurement": "Severe TEAEs (CTCAE Grade ≥3), F", "setting": "[9]", "result": 1}, {"measurement": "Sleep disorder, any severity, F", "setting": "[9]", "result": 1}, {"measurement": "Sleep disorder, moderate/severe, F", "setting": "[9]", "result": 1}, {"measurement": "TEAEs leading to discontinuation, F", "setting": "[9]", "result": 1}, {"measurement": "clinically relevant psychiatric events, subjects", "setting": "[9]", "result": 19.4, "unit": "%"}, {"measurement": "moderate/severe behavior problems, subjects", "setting": "[9]", "result": 22.6, "unit": "%"}]}
